For assay [1], the target named is T1, Polyunsaturated fatty acid 5-lipoxygenase (Homo sapiens) (UniProt P09917).
T1 sequence (whole entry): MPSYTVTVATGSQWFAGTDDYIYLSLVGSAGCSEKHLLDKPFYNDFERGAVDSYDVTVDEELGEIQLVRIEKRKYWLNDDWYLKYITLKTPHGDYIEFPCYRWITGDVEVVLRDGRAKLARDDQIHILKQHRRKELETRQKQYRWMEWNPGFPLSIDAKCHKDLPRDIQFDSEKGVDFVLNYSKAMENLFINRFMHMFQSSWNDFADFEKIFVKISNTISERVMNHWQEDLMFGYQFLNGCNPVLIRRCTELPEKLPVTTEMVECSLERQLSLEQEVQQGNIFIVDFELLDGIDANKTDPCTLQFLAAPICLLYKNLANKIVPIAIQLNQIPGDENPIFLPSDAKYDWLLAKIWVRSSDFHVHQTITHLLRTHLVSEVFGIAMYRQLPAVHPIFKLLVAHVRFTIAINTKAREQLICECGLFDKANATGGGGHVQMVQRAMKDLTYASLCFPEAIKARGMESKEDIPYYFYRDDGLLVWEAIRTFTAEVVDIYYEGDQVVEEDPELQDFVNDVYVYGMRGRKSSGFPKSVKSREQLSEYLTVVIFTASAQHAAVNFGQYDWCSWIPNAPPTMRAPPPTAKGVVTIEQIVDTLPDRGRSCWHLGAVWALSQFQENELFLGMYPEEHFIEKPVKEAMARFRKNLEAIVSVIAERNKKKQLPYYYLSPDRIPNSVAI
The assay is described as follows: Inhibition of human recombinant 5-lipoxygenase expressed in Escherichia coli Bl21 (DE3) using arachidonic acid as substrate preincubated at 10 uM for 10 mins before substrate addition measured after 10 mins by HPLC analysis.

The target in assay [2] is T2, Polyunsaturated fatty acid 5-lipoxygenase (Homo sapiens, UniProt P09917).
T2 sequence (P09917 whole entry): T1 sequence (whole entry)
Briefly: Inhibition of human recombinant 5-lipoxygenase using arachidonic acid as substrate preincubated for 10 mins before substrate addition measured after 10 mins by HPLC analysis.

Each structure is given as a SMILES string.

With `OCCc1ccc(O)cc1`, the inhibition in assay [1] amounted to 20%.

`C/C=C1/[C@H](O[C@@H]2O[C@H](CO)[C@@H](O)[C@H](O)[C@H]2O)OC=C(C(=O)OC)[C@H]1CC(=O)OCCc1ccc(O)c(O)c1`: the inhibition in assay [1] was found to be 35%.

Take `OCCc1ccc(O)c(O)c1` [HYDROXYTYROSOL]: in assay [2], the IC50 was found to be 13 µM. Moreover, the inhibition in assay [1] came to 48%.

As for `C/C=C(/C=O)[C@@H](CC=O)CC(=O)OCCc1ccc(O)c(O)c1`, in assay [2], the IC50 came out at 2 µM. Also, the inhibition in assay [1] is 90%.

With `C/C=C(/C=O)[C@@H](CC=O)CC(=O)OCCc1ccc(O)cc1`, the inhibition in assay [1] is 48%.

The term inhibition denotes the relative decrease from the control value, in per cent. As a reminder, the IC50 is the point on the concentration scale where inhibition reaches its midpoint.

(Values after ChEMBL document CHEMBL3124915, “One-step semisynthesis of oleacein and the determination as a 5-lipoxygenase inhibitor” (J Nat Prod, 2014).)
